Measurements: ChEMBL document CHEMBL1944625, “Design and synthesis of 3,5-diarylpiperidin-2,6-diones as anticonvulsant agents” (Bioorg Med Chem Lett, 2012)

Test system: not listed separately
Assay: Neurotoxicity in ip dosed Swiss albino mouse assessed as impair in motor coordination from 0.5 to 4 hrs post administration by rotarod test
Format: toxicity, organism-based
Conditions: in vivo

SMILES	TD50 [mg/kg]
NN1C(=O)C(c2ccccc2Cl)CC(c2ccccc2Cl)C1=O (configuration not stated)	117
O=C1NC(=O)C(c2ccccc2)CC1c1ccccc1 (configuration not stated)	193
Cc1ccccc1N1C(=O)C(c2ccccc2)CC(c2ccccc2)C1=O (configuration not stated)	104
Cc1ccccc1N1C(=O)C(c2ccccc2Cl)CC(c2ccccc2Cl)C1=O (configuration not stated)	227
O=C1C(c2ccccc2Cl)CC(c2ccccc2Cl)C(=O)N1c1ccccc1 (configuration not stated)	198
Cc1ccc(N2C(=O)C(c3ccccc3)CC(c3ccccc3)C2=O)cc1 (configuration not stated)	190
Cc1ccc(N2C(=O)C(c3ccccc3Cl)CC(c3ccccc3Cl)C2=O)cc1 (configuration not stated)	86.5
NN1C(=O)C(c2ccccc2)CC(c2ccccc2)C1=O (configuration not stated)	123
CN1C(=O)C(c2ccccc2)CC(c2ccccc2)C1=O (configuration not stated)	323
O=C1C(c2ccccc2Cl)CC(c2ccccc2Cl)C(=O)N1Cc1ccccc1 (configuration not stated)	106
O=C1C(c2ccccc2)CC(c2ccccc2)C(=O)N1c1ccccc1 (configuration not stated)	165
O=C1C(c2ccccc2Cl)CC(c2ccccc2Cl)C(=O)N1c1cccc(Cl)c1 (configuration not stated)	108
CN1C(=O)C(c2ccccc2Cl)CC(c2ccccc2Cl)C1=O (configuration not stated)	220
O=C1NC(=O)C(c2ccccc2Cl)CC1c1ccccc1Cl (configuration not stated)	175
O=C1C(c2ccccc2)CC(c2ccccc2)C(=O)N1Cc1ccccc1 (configuration not stated)	218

Organism: Mus musculus
Assay: Protection index, ratio of TD50 for Swiss albino mouse by rotarod test to ED50 for Swiss albino mouse by maximal electroshock test
Format: functional
Conditions: not given

SMILES	Ratio TD50/ED50
NN1C(=O)C(c2ccccc2Cl)CC(c2ccccc2Cl)C1=O (configuration not stated)	10.6
NC(=O)N1c2ccccc2C=Cc2ccccc21 [CARBAMAZEPINE]	6.4
O=C1NC(=O)C(c2ccccc2)CC1c1ccccc1 (configuration not stated)	17.5
Cc1ccccc1N1C(=O)C(c2ccccc2)CC(c2ccccc2)C1=O (configuration not stated)	4.9
Cc1ccccc1N1C(=O)C(c2ccccc2Cl)CC(c2ccccc2Cl)C1=O (configuration not stated)	8.3
O=C1C(c2ccccc2Cl)CC(c2ccccc2Cl)C(=O)N1c1ccccc1 (configuration not stated)	3.2
Cc1ccc(N2C(=O)C(c3ccccc3)CC(c3ccccc3)C2=O)cc1 (configuration not stated)	2.3
Cc1ccc(N2C(=O)C(c3ccccc3Cl)CC(c3ccccc3Cl)C2=O)cc1 (configuration not stated)	2.1
NN1C(=O)C(c2ccccc2)CC(c2ccccc2)C1=O (configuration not stated)	12.3
CN1C(=O)C(c2ccccc2)CC(c2ccccc2)C1=O (configuration not stated)	21.8
O=C1C(c2ccccc2Cl)CC(c2ccccc2Cl)C(=O)N1Cc1ccccc1 (configuration not stated)	2.7
O=C1C(c2ccccc2)CC(c2ccccc2)C(=O)N1c1ccccc1 (configuration not stated)	3.7
O=C1C(c2ccccc2Cl)CC(c2ccccc2Cl)C(=O)N1c1cccc(Cl)c1 (configuration not stated)	1.8
CN1C(=O)C(c2ccccc2Cl)CC(c2ccccc2Cl)C1=O (configuration not stated)	9.2
O=C1NC(=O)C(c2ccccc2Cl)CC1c1ccccc1Cl (configuration not stated)	7
O=C1C(c2ccccc2)CC(c2ccccc2)C(=O)N1Cc1ccccc1 (configuration not stated)	15.6

Test system: Mus musculus
Assay: Anticonvulsant activity in Swiss albino mouse assessed as protection against maximal electroshock-induced seizures measuring inhibition of extension phase at 25 mg/kg, ip after 2 hrs
Format: functional
Conditions: route intraperitoneal

SMILES	inhibition in vivo at 25 mg/kg [%]
NN1C(=O)C(c2ccccc2Cl)CC(c2ccccc2Cl)C1=O (configuration not stated)	73.3
O=C1NC(=O)C(c2ccccc2)CC1c1ccccc1 (configuration not stated)	70.2
Cc1ccccc1N1C(=O)C(c2ccccc2)CC(c2ccccc2)C1=O (configuration not stated)	66.1
Cc1ccccc1N1C(=O)C(c2ccccc2Cl)CC(c2ccccc2Cl)C1=O (configuration not stated)	60.6
O=C1C(c2ccccc2Cl)CC(c2ccccc2Cl)C(=O)N1c1ccccc1 (configuration not stated)	40.6
Cc1ccc(N2C(=O)C(c3ccccc3)CC(c3ccccc3)C2=O)cc1 (configuration not stated)	43.3
Cc1ccc(N2C(=O)C(c3ccccc3Cl)CC(c3ccccc3Cl)C2=O)cc1 (configuration not stated)	58.2
NN1C(=O)C(c2ccccc2)CC(c2ccccc2)C1=O (configuration not stated)	76
CN1C(=O)C(c2ccccc2)CC(c2ccccc2)C1=O (configuration not stated)	69.1
O=C1C(c2ccccc2Cl)CC(c2ccccc2Cl)C(=O)N1Cc1ccccc1 (configuration not stated)	58.2
O=C1C(c2ccccc2)CC(c2ccccc2)C(=O)N1c1ccccc1 (configuration not stated)	38.3
O=C1C(c2ccccc2Cl)CC(c2ccccc2Cl)C(=O)N1c1cccc(Cl)c1 (configuration not stated)	43.7
O=C1C(c2ccccc2)CC(c2ccccc2)C(=O)N1c1cccc(Cl)c1 (configuration not stated)	32.2
CN1C(=O)C(c2ccccc2Cl)CC(c2ccccc2Cl)C1=O (configuration not stated)	61.7
O=C1N=C(O)NC1(c1ccccc1)c1ccccc1 [PHENYTOIN SODIUM]	80.7
O=C1NC(=O)C(c2ccccc2Cl)CC1c1ccccc1Cl (configuration not stated)	58.3
O=C1C(c2ccccc2)CC(c2ccccc2)C(=O)N1Cc1ccccc1 (configuration not stated)	64.5

Test system: Mus musculus
Assay: Neurotoxicity in Swiss albino mouse assessed as impair in motor coordination at 300 mg/kg, ip after 0.5 hrs by rotarod test
Format: toxicity, organism-based
Design: dose 300 mg/kg, route intraperitoneal
Conditions: in vivo

SMILES	Activity
NN1C(=O)C(c2ccccc2Cl)CC(c2ccccc2Cl)C1=O (configuration not stated)	Toxic
O=C1NC(=O)C(c2ccccc2)CC1c1ccccc1 (configuration not stated)	Non-toxic
Cc1ccccc1N1C(=O)C(c2ccccc2)CC(c2ccccc2)C1=O (configuration not stated)	Toxic
Cc1ccccc1N1C(=O)C(c2ccccc2Cl)CC(c2ccccc2Cl)C1=O (configuration not stated)	Non-toxic
O=C1C(c2ccccc2Cl)CC(c2ccccc2Cl)C(=O)N1c1ccccc1 (configuration not stated)	Non-toxic
Cc1ccc(N2C(=O)C(c3ccccc3Cl)CC(c3ccccc3Cl)C2=O)cc1 (configuration not stated)	Toxic
NN1C(=O)C(c2ccccc2)CC(c2ccccc2)C1=O (configuration not stated)	Non-toxic
O=C1C(c2ccccc2Cl)CC(c2ccccc2Cl)C(=O)N1Cc1ccccc1 (configuration not stated)	Non-toxic
O=C1C(c2ccccc2)CC(c2ccccc2)C(=O)N1c1ccccc1 (configuration not stated)	Toxic
O=C1C(c2ccccc2Cl)CC(c2ccccc2Cl)C(=O)N1c1cccc(Cl)c1 (configuration not stated)	Non-toxic
O=C1C(c2ccccc2)CC(c2ccccc2)C(=O)N1c1cccc(Cl)c1 (configuration not stated)	Toxic
O=C1NC(=O)C(c2ccccc2Cl)CC1c1ccccc1Cl (configuration not stated)	Non-toxic
O=C1C(c2ccccc2)CC(c2ccccc2)C(=O)N1Cc1ccccc1 (configuration not stated)	Non-toxic

Test system: Mus musculus
Assay: Neurotoxicity in Swiss albino mouse assessed as impair in motor coordination at 100 mg/kg, ip after 0.5 hrs by rotarod test
Format: toxicity, organism-based
Design: dose 100 mg/kg, route intraperitoneal
Conditions: in vivo

SMILES	Activity
Cc1ccc(N2C(=O)C(c3ccccc3)CC(c3ccccc3)C2=O)cc1 (configuration not stated)	Toxic
CN1C(=O)C(c2ccccc2)CC(c2ccccc2)C1=O (configuration not stated)	Toxic
CN1C(=O)C(c2ccccc2Cl)CC(c2ccccc2Cl)C1=O (configuration not stated)	Toxic

Test system: Mus musculus
Assay: Neurotoxicity in Swiss albino mouse assessed as impair in motor coordination at 300 mg/kg, ip after 4 hrs by rotarod test
Format: toxicity, organism-based
Design: dose 300 mg/kg, route intraperitoneal
Conditions: in vivo

SMILES	Activity
NN1C(=O)C(c2ccccc2Cl)CC(c2ccccc2Cl)C1=O (configuration not stated)	Toxic
O=C1NC(=O)C(c2ccccc2)CC1c1ccccc1 (configuration not stated)	Non-toxic
Cc1ccccc1N1C(=O)C(c2ccccc2)CC(c2ccccc2)C1=O (configuration not stated)	Non-toxic
Cc1ccccc1N1C(=O)C(c2ccccc2Cl)CC(c2ccccc2Cl)C1=O (configuration not stated)	Non-toxic
O=C1C(c2ccccc2Cl)CC(c2ccccc2Cl)C(=O)N1c1ccccc1 (configuration not stated)	Non-toxic
Cc1ccc(N2C(=O)C(c3ccccc3)CC(c3ccccc3)C2=O)cc1 (configuration not stated)	Toxic
Cc1ccc(N2C(=O)C(c3ccccc3Cl)CC(c3ccccc3Cl)C2=O)cc1 (configuration not stated)	Non-toxic
NN1C(=O)C(c2ccccc2)CC(c2ccccc2)C1=O (configuration not stated)	Non-toxic
CN1C(=O)C(c2ccccc2)CC(c2ccccc2)C1=O (configuration not stated)	Toxic
O=C1C(c2ccccc2Cl)CC(c2ccccc2Cl)C(=O)N1Cc1ccccc1 (configuration not stated)	Non-toxic
O=C1C(c2ccccc2)CC(c2ccccc2)C(=O)N1c1ccccc1 (configuration not stated)	Non-toxic
O=C1C(c2ccccc2Cl)CC(c2ccccc2Cl)C(=O)N1c1cccc(Cl)c1 (configuration not stated)	Non-toxic
O=C1C(c2ccccc2)CC(c2ccccc2)C(=O)N1c1cccc(Cl)c1 (configuration not stated)	Non-toxic
CN1C(=O)C(c2ccccc2Cl)CC(c2ccccc2Cl)C1=O (configuration not stated)	Toxic
O=C1NC(=O)C(c2ccccc2Cl)CC1c1ccccc1Cl (configuration not stated)	Non-toxic
O=C1C(c2ccccc2)CC(c2ccccc2)C(=O)N1Cc1ccccc1 (configuration not stated)	Non-toxic

Test system: Mus musculus
Assay: Anticonvulsant activity in ip dosed Swiss albino mouse assessed as protection against maximal electroshock-induced seizures after 2 hrs
Format: functional
Conditions: not given

SMILES	ED50 [mg/kg]
NN1C(=O)C(c2ccccc2Cl)CC(c2ccccc2Cl)C1=O (configuration not stated)	11.2
NC(=O)N1c2ccccc2C=Cc2ccccc21 [CARBAMAZEPINE]	11.8
O=C1NC(=O)C(c2ccccc2)CC1c1ccccc1 (configuration not stated)	11
Cc1ccccc1N1C(=O)C(c2ccccc2)CC(c2ccccc2)C1=O (configuration not stated)	21.5
Cc1ccccc1N1C(=O)C(c2ccccc2Cl)CC(c2ccccc2Cl)C1=O (configuration not stated)	27.4
O=C1C(c2ccccc2Cl)CC(c2ccccc2Cl)C(=O)N1c1ccccc1 (configuration not stated)	61.4
Cc1ccc(N2C(=O)C(c3ccccc3)CC(c3ccccc3)C2=O)cc1 (configuration not stated)	82
Cc1ccc(N2C(=O)C(c3ccccc3Cl)CC(c3ccccc3Cl)C2=O)cc1 (configuration not stated)	41.2
NN1C(=O)C(c2ccccc2)CC(c2ccccc2)C1=O (configuration not stated)	10
CN1C(=O)C(c2ccccc2)CC(c2ccccc2)C1=O (configuration not stated)	14.8
O=C1C(c2ccccc2Cl)CC(c2ccccc2Cl)C(=O)N1Cc1ccccc1 (configuration not stated)	38.3
O=C1C(c2ccccc2)CC(c2ccccc2)C(=O)N1c1ccccc1 (configuration not stated)	43.7
O=C1C(c2ccccc2Cl)CC(c2ccccc2Cl)C(=O)N1c1cccc(Cl)c1 (configuration not stated)	60.2
O=C1C(c2ccccc2)CC(c2ccccc2)C(=O)N1c1cccc(Cl)c1 (configuration not stated)	> 100
CN1C(=O)C(c2ccccc2Cl)CC(c2ccccc2Cl)C1=O (configuration not stated)	23.7
O=C1NC(=O)C(c2ccccc2Cl)CC1c1ccccc1Cl (configuration not stated)	25.5
O=C1C(c2ccccc2)CC(c2ccccc2)C(=O)N1Cc1ccccc1 (configuration not stated)	14
